ChEMBL document CHEMBL1938315, “Tricyclic 3,4-dihydropyrimidine-2-thione derivatives as potent TRPA1 antagonists” (Bioorg Med Chem Lett, 2012)

Key:
[1] = target: T1, Transient receptor potential cation channel subfamily A member 1 (Homo sapiens, UniProt O75762); test: Antagonist activity at human TRPA1 expressed in HEK293 cells assessed as inhibition of 5H-dibenzo[b,e]azepine-10-carboxylic acid methyl ester-induced increase in intracellular calcium by Fluo4-AM based fluorometric assay; format: functional, cell-based
T1 sequence (O75762 whole entry): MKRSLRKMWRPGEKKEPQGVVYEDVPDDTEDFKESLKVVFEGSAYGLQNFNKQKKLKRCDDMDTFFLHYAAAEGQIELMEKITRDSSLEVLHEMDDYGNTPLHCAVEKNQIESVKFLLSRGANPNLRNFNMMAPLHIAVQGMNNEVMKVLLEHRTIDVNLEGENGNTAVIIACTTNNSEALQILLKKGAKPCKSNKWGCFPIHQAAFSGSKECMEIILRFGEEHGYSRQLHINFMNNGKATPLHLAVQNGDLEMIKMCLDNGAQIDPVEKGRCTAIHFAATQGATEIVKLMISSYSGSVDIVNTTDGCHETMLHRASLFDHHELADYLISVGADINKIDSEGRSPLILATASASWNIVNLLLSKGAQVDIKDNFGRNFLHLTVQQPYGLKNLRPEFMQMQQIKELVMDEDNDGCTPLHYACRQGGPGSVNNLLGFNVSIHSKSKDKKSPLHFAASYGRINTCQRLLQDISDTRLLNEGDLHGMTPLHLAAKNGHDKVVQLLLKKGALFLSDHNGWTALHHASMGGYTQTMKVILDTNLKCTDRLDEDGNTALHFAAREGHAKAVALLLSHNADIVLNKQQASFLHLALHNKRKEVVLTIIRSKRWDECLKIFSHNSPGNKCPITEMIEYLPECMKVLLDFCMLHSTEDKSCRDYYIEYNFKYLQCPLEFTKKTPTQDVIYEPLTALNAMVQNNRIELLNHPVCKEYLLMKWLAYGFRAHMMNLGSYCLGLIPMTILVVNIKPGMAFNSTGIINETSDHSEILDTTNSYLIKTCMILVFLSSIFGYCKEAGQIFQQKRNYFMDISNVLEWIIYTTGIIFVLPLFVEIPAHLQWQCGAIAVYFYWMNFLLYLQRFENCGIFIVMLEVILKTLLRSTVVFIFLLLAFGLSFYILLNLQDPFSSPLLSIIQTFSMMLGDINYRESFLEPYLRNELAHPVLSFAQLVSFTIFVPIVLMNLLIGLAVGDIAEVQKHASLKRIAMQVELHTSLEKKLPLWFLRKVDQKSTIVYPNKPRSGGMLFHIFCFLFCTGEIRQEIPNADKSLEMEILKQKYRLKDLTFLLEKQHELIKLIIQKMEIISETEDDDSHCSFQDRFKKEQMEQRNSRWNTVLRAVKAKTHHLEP

[2] = target: T2, Transient receptor potential cation channel subfamily A member 1 (Rattus norvegicus, UniProt Q6RI86); test: Antagonist activity at rat TRPA1 expressed in HEK293 cells assessed as inhibition of BITC-induced increase in intracellular calcium concentration by Fluo4-AM based fluorometric assay; format: functional, cell-based
T2 sequence (Q6RI86 whole entry): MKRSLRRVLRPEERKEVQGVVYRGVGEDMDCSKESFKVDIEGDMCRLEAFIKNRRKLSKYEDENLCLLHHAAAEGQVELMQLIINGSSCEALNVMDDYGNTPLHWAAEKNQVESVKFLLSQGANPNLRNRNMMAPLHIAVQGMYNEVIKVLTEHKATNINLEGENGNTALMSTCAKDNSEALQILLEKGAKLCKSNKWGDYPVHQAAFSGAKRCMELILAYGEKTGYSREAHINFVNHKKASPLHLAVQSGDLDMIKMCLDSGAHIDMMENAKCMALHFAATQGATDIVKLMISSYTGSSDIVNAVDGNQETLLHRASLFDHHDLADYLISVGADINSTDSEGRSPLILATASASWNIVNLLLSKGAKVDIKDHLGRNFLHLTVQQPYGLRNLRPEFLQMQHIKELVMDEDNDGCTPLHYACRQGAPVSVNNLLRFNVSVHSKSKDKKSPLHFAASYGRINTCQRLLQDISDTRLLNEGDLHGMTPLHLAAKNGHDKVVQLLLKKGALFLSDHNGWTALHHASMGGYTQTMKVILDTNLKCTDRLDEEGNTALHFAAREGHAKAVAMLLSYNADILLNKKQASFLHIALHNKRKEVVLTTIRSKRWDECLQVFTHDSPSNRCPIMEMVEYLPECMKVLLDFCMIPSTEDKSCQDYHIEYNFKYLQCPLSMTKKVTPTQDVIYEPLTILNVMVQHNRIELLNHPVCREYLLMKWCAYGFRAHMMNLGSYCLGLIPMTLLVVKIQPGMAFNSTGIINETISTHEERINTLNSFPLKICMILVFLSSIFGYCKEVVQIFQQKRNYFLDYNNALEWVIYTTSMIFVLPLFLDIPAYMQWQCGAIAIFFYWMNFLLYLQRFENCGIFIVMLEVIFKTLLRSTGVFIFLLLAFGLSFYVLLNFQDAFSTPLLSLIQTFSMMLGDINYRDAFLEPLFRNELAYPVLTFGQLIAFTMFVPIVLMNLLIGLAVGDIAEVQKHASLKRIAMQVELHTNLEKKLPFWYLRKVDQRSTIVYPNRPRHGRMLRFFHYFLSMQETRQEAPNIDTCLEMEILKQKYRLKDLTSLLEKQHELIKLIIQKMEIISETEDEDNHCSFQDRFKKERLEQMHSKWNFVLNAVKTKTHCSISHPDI

[3] = target: T1, Transient receptor potential cation channel subfamily A member 1; test: Antagonist activity at human TRPA1 expressed in HEK293 cells assessed as inhibition of N-methyl-maleimide-induced current by patch clamp assay
[4] = target: T2, Transient receptor potential cation channel subfamily A member 1; test: Antagonist activity at rat TRPA1 expressed in HEK293 cells assessed as inhibition of N-methyl-maleimide-induced current by patch clamp assay

Row | IC50 [1] [nM] | IC50 [2] [nM] | EC50 [3] [nM] | EC50 [4] [nM] | Structure (SMILES)
1 | > 10000 | 5600 | – | – | CC(C)c1ccc(NC(=O)Cn2cnc3c2c(=O)n(C)c(=O)n3C)cc1
2 | > 10000 | – | – | – | O=C1CCCC2=C1C(c1ccccc1)NC(S)=N2 (stereo unspecified)
3 | > 10000 | – | – | – | S=C(NCc1ccccc1)NCc1ccccc1
4 | > 10000 | – | – | – | SC1=NC2=C(CCC/C2=C\c2ccccc2)C(c2ccccc2)N1 (stereo unspecified)
5 | 13 | 4 | – | – | COCCCOc1cccc([C@H]2NC(=S)NC3=C2C(=O)c2ccccc23)c1
6 | 75 | 12 | 10 | 220 | COc1cccc([C@H]2NC(=S)NC3=C2C(=O)c2ccccc23)c1
7 | 1500 | 160 | – | – | COc1ccc(Oc2cccc(C3NC(=S)NC4=C3C(=O)c3ccccc34)c2)cc1 (stereo unspecified)
8 | 210 | 47 | – | – | O=C1C2=C(NC(=S)NC2c2cccc(OCCO)c2)c2ccccc21 (stereo unspecified)
9 | – | 2700 | – | – | COc1cccc(C2NC(=S)NC3=C2C(=O)c2ccccc23)c1OC (stereo unspecified)
10 | 3100 | 3500 | – | – | COc1ccc(C2NC(=S)NC3=C2C(=O)c2ccccc23)cc1 (stereo unspecified)
11 | 1100 | 390 | – | – | O=C1C2=C(NC(=S)NC2c2cccc(F)c2)c2ccccc21 (stereo unspecified)
12 | > 10000 | 9400 | – | – | COc1ccccc1C1NC(=S)NC2=C1C(=O)c1ccccc12 (stereo unspecified)
13 | 85 | 3 | – | – | COc1cccc(C2NC(=S)N(C)C3=C2C(=O)c2ccccc23)c1 (racemic)
14 | 1700 | 500 | – | – | COCCCOc1cccc(C2NC(=O)NC3=C2C(=O)c2ccccc23)c1 (racemic)
15 | 1800 | 1900 | – | – | O=C1C2=C(NC(=S)NC2c2ccccc2)c2ccccc21 (racemic)

Second part, the molecule before the results:

Row | Structure (SMILES) | IC50 [1] [nM] | IC50 [2] [nM] | EC50 [3] [nM] | EC50 [4] [nM]
16 | SC1=NC(c2ccccc2)=CC(c2ccccc2)N1 (stereo unspecified) | > 10000 | – | – | –
17 | O=C1NC2=C(C(=O)c3ccccc32)C(c2ccccc2)N1 (stereo unspecified) | > 10000 | > 10000 | – | –
18 | COCCCOc1cccc([C@@H]2NC(=S)NC3=C2C(=O)c2ccccc23)c1 | – | > 10000 | – | –
19 | COc1cccc([C@@H]2NC(=S)NC3=C2C(=O)c2ccccc23)c1 | – | > 10000 | 12000 | –
20 | CN(C)CCCOc1cccc(C2NC(=S)NC3=C2C(=O)c2ccccc23)c1 (stereo unspecified) | > 10000 | > 10000 | – | –
21 | O=C1C2=C(NC(=S)NC2c2cccc(OCCCCO)c2)c2ccccc21 (stereo unspecified) | 70 | 10 | – | –
22 | CN(C)CCOc1cccc(C2NC(=S)NC3=C2C(=O)c2ccccc23)c1 (stereo unspecified) | > 10000 | 8900 | – | –
23 | COc1cc(OC)cc(C2NC(=S)NC3=C2C(=O)c2ccccc23)c1 (stereo unspecified) | 2780 | 800 | – | –
24 | CCCCOc1cccc(C2NC(=S)NC3=C2C(=O)c2ccccc23)c1 (stereo unspecified) | 310 | 70 | – | –
25 | O=C(O)c1cccc(C2NC(=S)NC3=C2C(=O)c2ccccc23)c1 (stereo unspecified) | > 10000 | > 10000 | – | –
26 | COc1ccc(OC)c(C2NC(=S)NC3=C2C(=O)c2ccccc23)c1 (stereo unspecified) | – | > 10000 | – | –
27 | O=C1C2=C(NC(=S)NC2c2cccc(O)c2)c2ccccc21 (stereo unspecified) | 640 | 230 | – | –
28 | O=C1C2=C(NC(=S)NC2c2cccc(CO)c2)c2ccccc21 (stereo unspecified) | 710 | 44 | – | –
29 | O=C1C2=C(NC(=S)NC2c2cccc(Br)c2)c2ccccc21 (stereo unspecified) | – | 71 | – | –
30 | O=C1C2=C(NC(=S)NC2c2ccccc2F)c2ccccc21 (stereo unspecified) | 2070 | 3390 | – | –
31 | O=C1C2=C(NC(=S)N[C@@H]2c2ccccc2)c2ccccc21 | 770 | 310 | – | –
32 | O=C1C2=C(NC(=S)N[C@H]2c2ccccc2)c2ccccc21 | 8100 | > 10000 | – | –
33 | S=C1NC2=C(CCCC2)C(c2ccccc2)N1 (stereo unspecified) | > 10000 | – | – | –
34 | CC1=C(C(=O)c2ccccc2)C(c2ccccc2)NC(=S)N1 (stereo unspecified) | > 10000 | – | – | –
35 | S=C1NC2=C(CCc3ccccc32)C(c2ccccc2)N1 (stereo unspecified) | > 10000 | – | – | –
36 | S=C1NC2=C(CCC2)C(c2ccccc2)N1 (stereo unspecified) | > 10000 | – | – | –
37 | CCOC(=O)C1=C(c2ccccc2)NC(=S)NC1c1cccc(OC)c1 (stereo unspecified) | > 10000 | 9500 | – | –
38 | COc1cccc(C2C3=C(NC(=S)N2C)c2ccccc2C3=O)c1 (racemic) | – | 980 | – | –
39 | COc1cccc(C2NC(=O)NC3=C2C(=O)c2ccccc23)c1 (racemic) | 3900 | 4700 | – | –
40 | COCCCOc1cccc(C2NC(=S)NC3=C2C(=O)c2ccccc23)c1 (racemic) | 50 | 11 | – | –
41 | COc1cccc(C2NC(=S)NC3=C2C(=O)c2ccccc23)c1 (racemic) | 130 | 20 | – | –
